Measured values as given in article PMC7719179, “Small molecule inhibition of Dynamin-dependent endocytosis targets multiple niche signals and impairs leukemia stem cells” (Nature Communications, 2020).
“And” between values parts separate entries of the source, which are not always exact repeats. Equal entries are not always repeated.

Tested on: Ba/F3-IL7R^Stat5-CA cells
Experiment: pStat5 and proliferation of Ba/F3-IL7R^Stat5-CA cells with IL-7 or doxycycline
Type: cell-based, murine
Details: relative to data from day 0, reported as 1, groups +IL-7 -DOX or -IL-7 +DOX
Protocol: Ba/F3 cells (kindly provided by a person from The Walter and Eliza Hall Institute of Medical Research) were infected with pMIG-R1/Il7r retroviral supernatants produced in 293T cells, and transduced cells were sorted with a BD Influx (BD Australia) and selected by culture in medium supplemented with 5 ng/mL rmIL-7 (#217-17, Pepro Tech, Rocky Hill NJ, USA) for 7 days. Ba/F3 cells stably expressing Il7r (Ba/F3-IL7R) were infected with TxTCPVIR-Stat5-CA retroviral supernatants produced in 293T. Cell sorting was performed with a BD Influx and transduced cells were treated with doxycycline for 48 h to induce the expression of the Stat5-CA-T2A-mCherry fusion protein. […]
(red) assessed by flow cytometry (top) and Western blots (bottom). MFI ± SD of n=2 technical replicates, performed in 2 independent experiments (***P<0.001 compared to unstimulated cells ; white bar). For Western blots, Actin was used as a loading control. f, Proliferation of BaF3-IL7R Stat5-CA cells in absence (+IL-7 –DOX; grey) or presence (-IL-7 +DOX; red) of doxycycline. Fold expansion was calculated from the number of cells initially put into culture at day 0. […]

Compound: C[C@H]1c2cccc(O)c2C(=O)C2=C(O)[C@]3(O)C(=O)C(C(N)=O)=C(O)[C@@H](N(C)C)[C@@H]3[C@@H](O)[C@@H]21 [DOX]
- Fold expansion (24 h): 0.89 and 0.85 and 0.86 and 0.90 and 0.74 and 0.77
- Fold expansion (48 h): 1.39 and 1.43 and 1.24 and 1.40 and 1.29 and 1.28
- Fold expansion (72 h): 2.22 and 2.26 and 3.46 and 3.54 and 3.68 and 3.14
- Fold expansion (96 h): 3.24 and 3.39 and 3.99 and 3.41 and 3.51 and 3.96
- Fold expansion (120 h): 10.84 and 12.62 and 8.80 and 9.76 and 7.34 and 8.20
